Assay results from PubChem BioAssay AID1555 (Sanford-Burnham Center for Chemical Genomics, 2009).

Test system: human liver microsomes, LC/MS/MS parent remaining, 60 min
Experiment: human hepatic microsomal compound turnover – biochemical, ADME assay, late-stage follow-up (AID 1555)
Details: at 1 µM, stronger effect = lower value

In the case of C=CCn1c(SCC(=O)c2ccc(O)c(O)c2)nnc1-c1ccccc1OC, the percent remaining is reported as 47% and the percent remaining (measured here: remaining without NADPH control) is reported as 100%.
